Where a chain is given by its changes, count along the chain named. Read-outs that look alike come from different tables or passages of the source.
How the values were obtained:
[1] = system: U87MG pLVX-IDH2 R140Q-neo cells; experiment: U87MG pLVX-IDH2 R140Q-neo cell based assay, 2-HG in media by LC-MS at 48 hours
Method in brief: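 2-HG secreted into the medium was measured by LC-MS after 48 h of compound treatment (0.2% DMSO final) of U87MG pLVX-IDH2 R140Q-neo cells in DMEM/10% FBS. The same wells were assayed at 72 h by CellTiter-Glo luminescence for effects on growth.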

IDH2 R140Q = target: T1, IDH2 R140Q (Homo sapiens, UniProt P48735, R140Q); experiment: IDH2 R140Q enzymatic assay (cofactor depletion, similar format); assay type: biochemical; conditions: read-out: Enz R140Q
T1 sequence (P48735 40-452 R140Q): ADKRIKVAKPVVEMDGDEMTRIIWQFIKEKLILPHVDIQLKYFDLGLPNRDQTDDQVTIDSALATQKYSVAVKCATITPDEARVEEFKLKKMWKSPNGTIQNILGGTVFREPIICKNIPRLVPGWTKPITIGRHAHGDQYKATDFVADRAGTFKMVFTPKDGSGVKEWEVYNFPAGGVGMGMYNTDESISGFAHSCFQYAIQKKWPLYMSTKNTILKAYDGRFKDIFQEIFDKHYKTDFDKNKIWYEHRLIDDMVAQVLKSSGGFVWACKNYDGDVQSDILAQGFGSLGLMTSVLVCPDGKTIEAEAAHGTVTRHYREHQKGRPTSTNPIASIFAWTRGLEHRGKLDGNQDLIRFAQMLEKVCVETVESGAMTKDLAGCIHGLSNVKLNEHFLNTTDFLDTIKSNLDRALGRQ

IDH2 R172K = target: T2, IDH2 R172K (Homo sapiens, UniProt P48735, R172K); experiment: IDH2 R172K enzymatic assay (NADPH cofactor depletion, diaphorase/resazurin readout); assay type: biochemical; conditions: read-out: Enz R172K
T2 sequence (P48735 40-452 R172K): T1 sequence (P48735 40-452 R140Q) with Q101R, R133K
Experimental: Compounds are assayed for IDH2 R172K inhibitory activity through a cofactor depletion assay. […] The reaction is terminated by the addition of a second enzyme, diaphorase, and a corresponding substrate, resazurin. Diaphorase reduces resazurin to the highly fluorescent resorufin with the concomitant oxidation of NADPH to NADP, both halting the IDH2 reaction by depleting the available cofactor pool and facilitating quantitation of the amount of cofactor remaining after a specific time period through quantitative production of an easily detected fluorophore.
The test compound is then incubated for one hour at room temperature with the enzyme; before starting the IDH2 reaction with the addition of 10 μl of substrate mix containing 50 μM NADPH and 6.3 mM α-KG in the buffer described above. After a further one hour of incubation at room temperature, the reaction is halted and the remaining NADPH measured through conversion of resazurin to resorufin by the addition of 25 μl Stop Mix (36 μg/ml diaphorase enzyme and 60 μM resazurin; in buffer).

IC50 ([1]; Homo sapiens, U-87 MG) [nM] | IC50 (IDH2 R140Q) [nM] | IC50 (IDH2 R172K) [nM] | IC50 [1] [nM] | SMILES
 | 100 to 1000 | 1000 to 10000 |  | CC(C)Nc1nc(NC2CCOCC2)nc(-c2ccccc2)n1 [Compound 137]
100 to 1000 | < 100 | 1000 to 10000 |  | CC(C)Nc1nc(Nc2ccccc2)nc(-c2ccccc2C#N)n1 [Compound 139]
100 to 1000 | < 100 | 1000 to 10000 |  | CC(C)Nc1nc(Nc2ccc(F)cc2F)nc(-c2ccccc2)n1 [Compound 140]
100 to 1000 | < 100 | 100 to 1000 |  | CC(C)Nc1nc(Nc2ccc(C#N)cc2)nc(-c2ccccc2)n1 [Compound 141]
100 to 1000 | < 100 | 100 to 1000 |  | CC(C)Nc1nc(Nc2ccc(Cl)cc2)nc(-c2ccccc2)n1 [Compound 143]
100 to 1000 | 100 to 1000 | 1000 to 10000 |  | Cc1ccccc1Nc1nc(NC(C)C)nc(-c2ccccc2)n1 [Compound 147]
 | 100 to 1000 | 1000 to 10000 |  | CC(C)Nc1nc(Nc2ccccc2C#N)nc(-c2ccccc2)n1 [Compound 165]
 | < 100 | 1000 to 10000 |  | c1ccc(-c2nc(Nc3ccncc3)nc(NC3CC3)n2)cc1 [Compound 217, N^2-cyclopropyl-6-phenyl-N^4-(pyridin-4-yl)-1,3,5-triazine-2,4-diamine]
 | 100 to 1000 | 1000 to 10000 |  | O=C(Nc1nc(Nc2ccccc2)nc(-c2ccccc2)n1)C1CCCO1 (centres unmarked) [Compound 243, N-(4-phenyl-6-(phenylamino)-1,3,5-triazin-2-yl)tetrahydrofuran-2-carboxamide]
 | 100 to 1000 | 1000 to 10000 |  | COC(C)(C)CNc1nc(Nc2ccncc2)nc(-c2ccccc2)n1 [Compound 252, N^2-(2-methoxy-2-methylpropyl)-6-phenyl-N^4-(pyridin-4-yl)-1,3,5-triazine-2,4-diamine]
100 to 1000 | 100 to 1000 |  |  | O=C(Nc1nc(Nc2ccccc2)nc(-c2ccccc2)n1)c1ccc[nH]1 [Compound 414, 1H-Pyrrole-2-carboxylic acid (4-phenyl-6-phenylamino-[1,3,5]triazin-2-yl)-amide]
 | 100 to 1000 |  | < 100 | COC(=O)c1cc(Nc2nc(NC(C)C)nc(-c3ccccc3)n2)ccn1 [Compound 450, methyl 4-((4-(isopropylamino)-6-phenyl-1,3,5-triazin-2-yl)amino)picolinate]
100 to 1000 |  | 100 to 1000 |  | COc1cc(Cl)cc(-c2nc(Nc3cc(F)cc(F)c3)nc(NC(C)C)n2)n1 [Compound 486, 6-(4-chloro-6-methoxypyridin-2-yl)-N^2-(3,5-difluorophenyl)-N^4-isopropyl-1,3,5-triazine-2,4-diamine]
 | 100 to 1000 | 1000 to 10000 |  | CC(C)Nc1nc(Nc2ccnc(C(F)(F)F)c2)nc(-c2cc(Cl)cc(C(F)(F)F)c2)n1 [Compound 644, 6-(3-Chloro-5-trifluoromethyl-phenyl)-N-isopropyl-N′-(2-trifluoromethyl-pyridin-4-yl)-[1,3,5]triazine-2,4-diamine]
1000 to 10000 | 100 to 1000 |  |  | CC(C)Nc1nc(Nc2cccc(S(C)(=O)=O)c2)nc(-c2cc(F)cc(C(F)(F)F)c2)n1 [Compound 660, 6-(3-fluoro-5-(trifluoromethyl)phenyl)-N2-isopropyl-N4-(3-(methylsulfonyl)phenyl)-1,3,5-triazine-2,4-diamine]
100 to 1000 |  | 1000 to 10000 |  | COc1cc(F)cc(-c2nc(Nc3ccnc(C(F)(F)F)c3)nc(NC(C)C)n2)c1 [Compound 662, 6-(3-fluoro-5-methoxyphenyl)-N2-isopropyl-N4-(2-(trifluoromethyl)pyridin-4-yl)-1,3,5-triazine-2,4-diamine]
< 100 |  | < 100 |  | CC(C)Nc1nc(Nc2ccnc(C(F)(F)F)c2)nc(-c2cccc(C(C)O)c2)n1 (centres unmarked) [Compound 663, 1-(3-(4-(isopropylamino)-6-((2-(trifluoromethyl)pyridin-4-yl)amino)-1,3,5-triazin-2-yl)phenyl)ethanol]
< 100 |  | < 100 |  | CC(C)Nc1nc(Nc2ccnc(C(F)(F)F)c2)nc(-c2cc(O)cc(CO)c2)n1 [Compound 665, 3-(hydroxymethyl)-5-(4-(isopropylamino)-6-((2-(trifluoromethyl)pyridin-4-yl)amino)-1,3,5-triazin-2-yl)phenol]

Continued, compound first:

SMILES | IC50 ([1]; Homo sapiens, U-87 MG) [nM] | IC50 (IDH2 R140Q) [nM] | IC50 (IDH2 R172K) [nM] | IC50 [1] [nM]
CC(C)Nc1nc(Nc2ccccc2)nc(-c2ccccc2)n1 [Compound 100] | < 100 | < 100 | < 100 | 
CC(C)Nc1nc(Cc2ccccc2)nc(Nc2ccccc2)n1 [Compound 103] | 1000 to 10000 | 100 to 1000 | 1000 to 10000 | 
CC(C)Nc1nc(Nc2ccccc2)nc(-c2ccccc2NS(C)(=O)=O)n1 [Compound 109] | 1000 to 10000 | 100 to 1000 | 1000 to 10000 | 
c1ccc(Nc2nc(NC3CC3)nc(-c3ccccc3)n2)cc1 [Compound 110] | < 100 | < 100 | 100 to 1000 | 
c1ccc(Nc2nc(NCC3CC3)nc(-c3ccccc3)n2)cc1 [Compound 111] | < 100 | < 100 | < 100 | 
CC(C)(C)Nc1nc(Nc2ccccc2)nc(-c2ccccc2)n1 [Compound 112] | 100 to 1000 | < 100 | 100 to 1000 | 
c1ccc(Nc2nc(NC3CCCCC3)nc(-c3ccccc3)n2)cc1 [Compound 113] | < 100 | < 100 | 100 to 1000 | 
CC(C)Nc1nc(Nc2ccccc2)nc(-c2cccnc2)n1 [Compound 114] | 1000 to 10000 | 100 to 1000 | 1000 to 10000 | 
COc1cccc(-c2nc(Nc3ccccc3)nc(NC(C)C)n2)c1 [Compound 115] | 100 to 1000 | < 100 | 100 to 1000 | 
COc1ccc(-c2nc(Nc3ccccc3)nc(NC(C)C)n2)cc1 [Compound 116] |  | 100 to 1000 | 1000 to 10000 | 
Cc1cccc(C)c1-c1nc(Nc2ccccc2)nc(NC(C)C)n1 [Compound 117] |  | 100 to 1000 | 1000 to 10000 | 
CC(C)Nc1nc(Nc2ccccc2)nc(-c2ccc(F)cc2F)n1 [Compound 118] | 100 to 1000 | < 100 | 100 to 1000 | 
CC(C)Nc1nc(Nc2ccccc2)nc(-c2ccnn2C)n1 [Compound 119] | 1000 to 10000 | 100 to 1000 | > 10000 | 
COc1ccccc1-c1nc(Nc2ccccc2)nc(NC(C)C)n1 [Compound 120] | < 100 | < 100 | 100 to 1000 | 
CC(C)Nc1nc(Nc2ccccc2)nc(-c2ccccc2Cl)n1 [Compound 121] | < 100 | < 100 | < 100 | 
CC(C)Nc1nc(Nc2ccccc2)nc(-c2ccc(Cl)cc2)n1 [Compound 122] | 1000 to 10000 | 100 to 1000 | 1000 to 10000 | 
Cc1ccccc1-c1nc(Nc2ccccc2)nc(NC(C)C)n1 [Compound 123] | 100 to 1000 | < 100 | 100 to 1000 | 
FC(F)(F)CNc1nc(Nc2ccccc2)nc(-c2ccccc2)n1 [Compound 126] | < 100 | < 100 | 100 to 1000 | 
CC(C)Nc1nc(Nc2ccccc2)nc(-c2cccc(C#N)c2)n1 [Compound 128] | 1000 to 10000 | 100 to 1000 | 1000 to 10000 | 
CC(C)Nc1nc(Nc2ccncc2)nc(-c2ccccc2)n1 [Compound 129, N^2-isopropyl-6-phenyl-N^4-(pyridin-4-yl)-1,3,5-triazine-2,4-diamine] | 100 to 1000 | < 100 | 1000 to 10000 | 
CC(C)Nc1nc(Nc2cccc(C#N)c2)nc(-c2ccccc2)n1 [Compound 130] | < 100 | < 100 | 100 to 1000 | 
CC(C)Nc1nc(Nc2ccc(F)cc2)nc(-c2ccccc2)n1 [Compound 132] | < 100 | < 100 | 100 to 1000 | 
CC(C)Nc1nc(Nc2ccc(O)cc2)nc(-c2ccccc2)n1 [Compound 133] |  | 100 to 1000 | > 10000 | 
c1ccc(Nc2nc(NCc3ccccn3)nc(-c3ccccc3)n2)cc1 [Compound 135] | 1000 to 10000 | 100 to 1000 | > 10000 | 

Reference: patent US9512107B2, “Therapeutically active compositions and their methods of use” (Agios Pharmaceuticals, Inc., priority 2012, dated 2016)
